From patent US7807690B2, “2,3-dihydro-iminoisoindole derivatives” (Eisai R&D Management Co., Ltd., priority 2007, dated 2010)
Structures can show the parent of a compound that is named as a salt.

What follows are molecules tested against T1, human clotting factor VIIa (Homo sapiens, UniProt P08709) (assay: Inhibiting activity against clotting factor VIIa (chromogenic substrate Spectrozyme FVIIa, TF/Factor VIIa enzyme solution)). Details: 10 nmol/L human TF, 5 nmol/L Factor VIIa, room temperature 40 minutes, 405 nm.
T1 construct: a human clotting factor VIIa (hereinafter, “Factor VIIa”) purified sample; purchased Enzyme Research Laboratories HFVIIa
T1 sequence (P08709 213-466 limits assumed): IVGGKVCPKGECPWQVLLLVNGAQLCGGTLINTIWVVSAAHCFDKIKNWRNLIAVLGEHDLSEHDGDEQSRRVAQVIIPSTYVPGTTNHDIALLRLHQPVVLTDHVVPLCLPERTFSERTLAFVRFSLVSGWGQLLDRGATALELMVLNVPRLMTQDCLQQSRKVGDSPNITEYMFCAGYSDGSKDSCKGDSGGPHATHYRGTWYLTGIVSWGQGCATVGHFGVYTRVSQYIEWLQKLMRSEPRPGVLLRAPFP
T1 sequence (P08709 61-212 limits assumed): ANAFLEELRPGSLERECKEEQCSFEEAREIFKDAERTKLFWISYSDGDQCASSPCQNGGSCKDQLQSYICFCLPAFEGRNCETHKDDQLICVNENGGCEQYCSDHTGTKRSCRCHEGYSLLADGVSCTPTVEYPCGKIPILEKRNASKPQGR
T1 sequence (P13726 33-295 partner): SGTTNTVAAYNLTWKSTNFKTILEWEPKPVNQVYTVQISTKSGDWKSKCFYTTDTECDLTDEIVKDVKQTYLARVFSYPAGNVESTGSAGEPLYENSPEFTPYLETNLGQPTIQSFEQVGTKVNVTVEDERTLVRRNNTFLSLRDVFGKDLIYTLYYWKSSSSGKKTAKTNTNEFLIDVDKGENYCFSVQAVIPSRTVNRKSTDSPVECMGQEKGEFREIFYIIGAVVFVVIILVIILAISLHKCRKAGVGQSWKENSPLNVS
Format: biochemical
Protocol: A dimethyl sulfoxide (DMSO) solution was prepared with an invention compound concentration of 10 mmol/L (10 mmol/L compound solution).
One packet of tris-hydroxymethylaminomethane-preset (hereinafter referred to as “Tris preset”)(Product of Sigma Corp., Catalog No. T8293), 8.8 g of sodium chloride (NaCl) and 1 g of bovine serum albumin (hereinafter abbreviated as “BSA”) were dissolved in 1 L of water to prepare a Tris-BSA buffer (100 mmol/L Tris, 0.15 mol/L NaCl, 0.1% BSA, pH 7.4).
The Tris-BSA buffering solution (180 μL) was added to the aforementioned 10 mmol/L compound solution (20 μL). The mixture was provided for a 10-fold dilution series using the aforementioned Tris-BSA buffering solution to prepare solutions with compound concentrations of 1.0 mmol/L, 100, 10, 1, 0.1, 0.01 and 0.001 μmol/L (1.0 mmol-0.001 μmol/L compound solutions).
As a control, a solution was prepared by 10-fold dilution of DMSO with the Tris-BSA buffer (hereinafter referred to as “control 10% solution”).
After dissolving one pack of Tris-Preset, NaCl (8.8 g) and BSA (1 g) in water (approximately 900 mL), a 1 mol/L calcium chloride (CaCl2) aqueous solution (15 mL) and a 1 mg/mL Cephalin aqueous solution (30 mL) were added, and water was added to a total volume of 1 L. To this solution there was added a human tissue factor (hereinafter, “TF”) sample (product of Calbiochem, Catalog No. 612151)(450 μg) to a TF sample concentration of 10 nmol/L, and then a human clotting factor VIIa (hereinafter, “Factor VIIa”) purified sample (product of Enzyme Research Laboratories, Catalog No. HFVIIa)(250 μg) was added to a Factor VIIa purified sample concentration of 5 nmol/L, to prepare an enzyme solution (100 mmol/L Tris-HCl, 0.15 mol/L NaCl, 15 mmol/L CaCl2, 30 μg/mL Cephalin, 1 mg/mL BSA, 10 nmol/L TF, 5 nmol/L Factor VIIa).
To 110 μL of this enzyme solution there was added 15 μL of each of the 1.0-mmol-0.001 μmol/L compound solutions, and then 25 μL of a 1.0 mmol/L synthetic chromogenic substrate solution (Spectrozyme FVIIa, product of American Diagnostica, Catalog No. 217L) was added and the mixture was allowed to stand at room temperature for 40 minutes. The amount of 4-nitroanilide released into the solution was quantified by spectrophotometry (405 nm).
A control […] was used in place of the compound solution for measurement in the same manner as a control.
The enzyme reaction inhibition was determined based on this measurement in the presence of the compounds of the invention from 100 μmol/L to 0.1 nmol/L. The IC50 value of each compound as an index of inhibiting activity against clotting factor VIIa was calculated based on nonlinear regression analysis of the enzyme reaction inhibition at each compound concentration.
`COc1cc(C(Nc2ccc3c(c2)CNC3=N)c2nn(-c3ncsc3C(=O)O)c(=O)[nH]2)c(F)c2c1OCCC2` (single isomer, unassigned) [Example 1] gave an IC50 of 38 nM.
With `COc1cc(C(Nc2ccc3c(c2)CNC3=N)c2nn(-c3ncccc3N)c(=O)[nH]2)cc2c1OCOC2` (single isomer, unassigned) [Example 2, acetate] the IC50 was 13 nM.
With `COc1cc(C(Nc2ccc3c(c2)CNC3=N)c2nn(-c3ncccn3)c(=O)[nH]2)cc2c1OCOC2` (single isomer, unassigned) [Example 5] the IC50 was 20 nM.
Molecule `COc1cc(C(Nc2ccc3c(c2)CNC3=N)c2nn(-c3ccsc3C(=O)O)c(=O)[nH]2)cc2c1OCOC2` (single isomer, unassigned) [Example 7] has an IC50 of 3 nM.
For `COc1cc(F)c(C(Nc2ccc3c(c2)CNC3=N)c2nn(-c3ccccc3N)c(=O)[nH]2)cc1OC` (single isomer, unassigned) [Example 10, acetate], the IC50 was 12 nM.
In the case of `CCc1cc(OCCO)c(F)c(C(Nc2ccc3c(c2)CNC3=N)c2nn(-c3ncccc3N)c(=O)[nH]2)c1` (single isomer, unassigned) [Example 16, Acetate], the IC50 is reported as 3 nM.
Work on `CCc1cc(OCCO)c(F)c(C(Nc2ccc3c(c2)CNC3=N)c2nn(-c3ccsc3C(=O)O)c(=O)[nH]2)c1` (single isomer, unassigned) [Example 17] yielded an IC50 of 2 nM.
`CCc1cc(OCCN(C)C)c(F)c(C(Nc2ccc3c(c2)CNC3=N)c2nn(-c3ncccn3)c(=O)[nH]2)c1` (centres unmarked) [Example 3, 5-{[3-(2-Dimethylaminoethoxy)-5-ethyl-2-fluorophenyl]-(1-imino-2,3-dihydro-1H-isoindol-5-ylamino)methyl}-2-pyrimidin-2-yl-2,4-dihydro-[1,2,4]triazol-3-one Bistrifluoroacetate] showed an IC50 of 25 nM.
`CCc1cc(OCCO)c(F)c(C(Nc2ccc3c(c2)CNC3=N)c2nn(-c3ncccn3)c(=O)[nH]2)c1` (centres unmarked) [Example 4, 5-{[5-Ethyl-2-fluoro-3-(2-hydroxyethoxy)phenyl]-(1-imino-2,3-dihydro-1H-isoindol-5-ylamino)methyl}-2-pyrimidin-2-yl-2,4-dihydro-[1,2,4]triazol-3-one] showed an IC50 of 14 nM.
`COc1cc(OCCO)c(F)c(C(Nc2ccc3c(c2)CNC3=N)c2nn(-c3ncsc3C(=O)O)c(=O)[nH]2)c1` (centres unmarked) [Example 6, 4-(3-{[2-Fluoro-3-(2-hydroxyethoxy)-5-methoxyphenyl]-(1-imino-2,3-dihydro-1H-isoindol-5-ylamino)methyl}-5-oxo-4,5-dihydro-[1,2,4]triazol-1-yl)thiazole-5-carboxylic Acid] showed an IC50 of 123 nM.
`CCc1cc(OCCN(C)C)c(F)c(C(Nc2ccc3c(c2)CNC3=N)c2nn(-c3ccccc3N)c(=O)[nH]2)c1` (centres unmarked) [Example 8, 2-(2-Aminophenyl)-5-{[3-(2-dimethylaminoethoxy)-5-ethyl-2-fluorophenyl]-(1-imino-2,3-dihydro-1H-isoindol-5-ylamino)methyl}-2,4-dihydro-[1,2,4]triazol-3-one bistrifluoroacetate] gave an IC50 of 15 nM.
`COc1cc(F)c(C(Nc2ccc3c(c2)CNC3=N)c2nn(-c3nc[nH]c3C(=O)O)c(=O)[nH]2)cc1OC` (centres unmarked) [Example 9, 5-{3-[(2-Fluoro-4,5-dimethoxyphenyl)-(1-imino-2,3-dihydro-1H-isoindol-5-ylamino)methyl]-5-oxo-4,5-dihydro-[1,2,4]triazol-1-yl}-3H-imidazole-4-carboxylic Acid] was tested, and the IC50 was 42 nM.
Molecule `COc1cc(OCCO)c(F)c(C(Nc2ccc3c(c2)CNC3=N)c2nn(-c3ncoc3C(=O)O)c(=O)[nH]2)c1` (centres unmarked) [Example 11, 4-(3-{[2-Fluoro-3-(2-hydroxyethoxy)-5-methoxyphenyl]-(1-imino-2,3-dihydro-1H-isoindol-5-ylamino)methyl}-5-oxo-4,5-dihydro-[1,2,4]triazol-1-yl)oxazole-5-carboxylic acid] has an IC50 of 242 nM.
`COc1cc(F)c(C(Nc2ccc3c(c2)CNC3=N)c2nn(-c3cccc[n+]3[O-])c(=O)[nH]2)cc1OC` (centres unmarked) [Example 12, 5-[(2-Fluoro-4,5-dimethoxyphenyl)-(1-imino-2,3-dihydro-1H-isoindol-5-ylamino)methyl]-2-(1-oxypyridin-2-yl)-2,4-dihydro-[1,2,4]triazol-3-one] gave an IC50 of 163 nM.
In the case of `COc1cc(F)c(C(Nc2ccc3c(c2)CNC3=N)c2nn(-c3ccccc3C(=O)O)c(=O)[nH]2)cc1OC` (centres unmarked) [Example 13, 2-{3-[(2-Fluoro-4,5-dimethoxyphenyl)-(1-imino-2,3-dihydro-1H-isoindol-5-ylamino)methyl]-5-oxo-4,5-dihydro-[1,2,4]triazol-1-yl}benzoic Acid Trifluoroacetate], the IC50 is reported as 4 nM.
In the case of `COc1cc(OC)c(F)c(C(Nc2ccc3c(c2)CNC3=N)c2nn(-c3ccccc3[N+](=O)[O-])c(=O)[nH]2)c1` (centres unmarked) [Example 14, 5-[(2-Fluoro-3,5-dimethoxyphenyl)-(1-imino-2,3-dihydro-1H-isoindol-5-ylamino)methyl]-2-(2-nitrophenyl)-2,4-dihydro-[1,2,4]triazol-3-one trifluoroacetate], the IC50 is reported as 13 nM.
For `COc1cc(F)c(C(Nc2ccc3c(c2)CNC3=N)c2nn(-c3n[nH]cc3C(=O)O)c(=O)[nH]2)cc1OC` (centres unmarked) [Example 15, 3-{3-[(2-Fluoro-4,5-dimethoxyphenyl)-(1-imino-2,3-dihydro-1H-isoindol-5-ylamino)methyl]-5-oxo-4,5-dihydro-[1,2,4]triazol-1-yl}-1H-pyrazole-4-carboxylic Acid], the IC50 was 207 nM.
